In patent publication US20190167593A1, “C[…] PHARMACEUTICALLY ACCEPTABLE SALT THEREOF, AND APPLICATION OF SAME” (priority 2016, published 2019):
“And” between values parts separate entries of the source, which are not always exact repeats. Equal entries are not always repeated. “Also recorded” adds a separate entry of the source.

Assays:
H274Y virus = assay type: cell-based; details: read-out: IC50 against influenza virus replication (plaque formation), H274Y
[1] = system: NAI drug-resistant mutant stain H274Y-PR8 virus; parameters: species or system BALB/c mice; details: mouse, in vivo
[2] = system: H274Y mutant influenza virus; details: background statement; cited from earlier work

Molecule | IC50 (H274Y virus) | body weight [1] | body weight decrease [1] | disease symptoms [1] | mortality rate [1] | decrease of activity due to the resistance caused by the mutation of H274Y [2]
Peramivir | 643 nM | significant weight decline | about 6% | mild disease symptoms; also recorded: obvious disease symbols | 60% | –
CCOC(=O)C1=C[C@@H](OC(CC)CC)[C@H](NC(C)=O)[C@@H](N)C1.O=P(O)(O)O [Oseltamivir phosphate, ethyl (3R, 4R, 5S)-4-acetamido-5-amino-3-(1-ethylpropoxy)-1-cyclohexene-1-carboxylate phosphate] | 15000 nM | – | – | obvious disease symptoms | 40% | more than 300 times
CCCCS(=O)(=O)N[C@@H]1CCCN([C@@H]2C=C(C(=O)O)C[C@H](NC(=N)N)[C@H]2NC(C)=O)C1 [(3R,4R,5S)-4-acetamido-5-guanidino-3-((3R)-3-n-butylsulfonamidopiperidin)-1-cyclohexene-1-carboxylic acid] | 130 nM and 131 nM | basically the same as that of the uninfected control mice; also recorded: decreased significantly | – | no symptoms of any diseases | 20% | –
